Like-named read-outs stand apart in the source and are kept apart here.
Columns and labels:
[1] = test system: alopecia; test: composition directly injected into the scalp on one side of the head, other side left untreated; assay type: in vivo, human
Text: (§1) patient one is diagnosed with alopecia. A composition comprising the calcium channel blocker nifedipine is directly injected into the scalp on one side of the head while the side is left untreated. […] patient one is diagnosed with alopecia. A composition comprising the ACE inhibitor enalapril is directly injected into the scalp on one side of the head while the side is left untreated. […] patient one is diagnosed with alopecia. A composition comprising the angiotensin receptor blocker losartan is directly injected into the scalp on one side of the head while the side is left untreated. […] patient two is diagnosed with alopecia. A composition comprising the calcium channel blocker nifedipine is directly injected into the scalp on one side of the head while the side is left untreated. […] patient two is diagnosed with alopecia. A composition comprising the ACE inhibitor enalapril is directly injected into the scalp on one side of the head while the side is left untreated. […] patient two is diagnosed with alopecia. A composition comprising the angiotensin receptor blocker losartan is directly injected into the scalp on one side of the head while the side is left untreated.

[2] = test system: alopecia; test: composition directly applied to the scalp on one side of the head, other side left untreated; assay type: in vivo, human
Text: as §1, with “is directly applied to the scalp” for “is directly injected into the scalp”, “while the other side is” for “while the side is”

[3] = test system: androgenic alopecia; details: cited from earlier work
[4] = test system: female pattern hair loss; details: women, facial hair growth during treatment; cited from earlier work

Structure (SMILES): CCOC(=O)[C@H](CCc1ccccc1)N[C@@H](C)C(=O)N1CCC[C@H]1C(=O)O [enalapril]
- symptoms of alopecia, treated side versus untreated side ([1]; patient one): reduced symptoms of alopecia
- symptoms of alopecia, treated side versus untreated side ([1]; patient two): reduced symptoms of alopecia
- symptoms of alopecia, treated side versus untreated side ([2]; patient one): reduced symptoms of alopecia
- symptoms of alopecia, treated side versus untreated side ([2]; patient two): reduced symptoms of alopecia

Structure (SMILES): CCCCc1nc(Cl)c(CO)n1Cc1ccc(-c2ccccc2-c2nn[nH]n2)cc1 [losartan]
- symptoms of alopecia, treated side versus untreated side ([1]; patient one): reduced symptoms of alopecia
- symptoms of alopecia, treated side versus untreated side ([1]; patient two): reduced symptoms of alopecia
- symptoms of alopecia, treated side versus untreated side ([2]; patient one): reduced symptoms of alopecia
- symptoms of alopecia, treated side versus untreated side ([2]; patient two): reduced symptoms of alopecia

Structure (SMILES): CC(C)(C)NC(=O)[C@H]1CC[C@H]2[C@@H]3CC[C@H]4NC(=O)C=C[C@]4(C)[C@H]3CC[C@]12C [Finasteride]
- hair count higher than baseline as compared to placebo ([3]; after 4 years): 24.3%
- hair count higher than baseline as compared to placebo ([3]; after one year of treatment): 9.42%

Structure (SMILES): Nc1cc(N2CCCCC2)nc(N)[n+]1[O-] [Minoxidil]
- time for facial hair growth side effect to resolve [4]: at least 4 months
